Reference: the supplement of paper PMC13380429

Experiments:
Settings in all cases: 72 h
[1] = tested on: Vero E6; assay: cell viability relative to DMSO; higher = less toxic
[2] = tested on: Caco-2; assay: as above
[3] = tested on: U2OS; assay: as above
[4] = tested on: Calu-3; assay: as above
[5] = tested on: HepG2; assay: as above
[6] = tested on: Vero E6; assay: relative viability EC50 (midpoint between 100% and the lowest measured viability); higher = less toxic
[7] = tested on: Caco-2; assay: as above
[8] = tested on: U2OS; assay: as above
[9] = tested on: Calu-3; assay: as above
[10] = tested on: HepG2; assay: as above
[11] = tested on: Vero E6; assay: drug sensitivity score (DSS) for viability; higher = more toxic; extreme values may be limits of the assay
[12] = tested on: Caco-2; assay: as above
[13] = tested on: U2OS; assay: as above
[14] = tested on: Calu-3; assay: as above
[15] = tested on: HepG2; assay: as above

SMILES	cell viability ([1]; 1 nM) [%]	cell viability ([1]; 10 nM) [%]	cell viability ([1]; 100 nM) [%]	cell viability ([1]; 1000 nM) [%]	cell viability ([1]; 10000 nM) [%]	cell viability ([2]; 1 nM) [%]	cell viability ([2]; 10 nM) [%]	cell viability ([2]; 100 nM) [%]	cell viability ([2]; 1000 nM) [%]	cell viability ([2]; 10000 nM) [%]	cell viability ([3]; 1 nM) [%]	cell viability ([3]; 10 nM) [%]	cell viability ([3]; 100 nM) [%]	cell viability ([3]; 1000 nM) [%]	cell viability ([3]; 10000 nM) [%]	cell viability ([4]; 1 nM) [%]	cell viability ([4]; 10 nM) [%]	cell viability ([4]; 100 nM) [%]	cell viability ([4]; 1000 nM) [%]	cell viability ([4]; 10000 nM) [%]	cell viability ([5]; 1 nM) [%]	cell viability ([5]; 10 nM) [%]	cell viability ([5]; 100 nM) [%]	cell viability ([5]; 1000 nM) [%]	cell viability ([5]; 10000 nM) [%]	relative viability EC50 [6] [µM]	relative viability EC50 [7] [µM]	relative viability EC50 [8] [µM]	relative viability EC50 [9] [µM]	relative viability EC50 [10] [µM]	drug sensitivity score [11]	drug sensitivity score [12]	drug sensitivity score [13]	drug sensitivity score [14]	drug sensitivity score [15]
NCCCCCC(=O)O [aminocaproic-acid]	102	106	98.6	109	92.6	119	99.3	102	105	109	104	97.1	101	95	98.5	105	90.6	96.9	91.3	99.4	81.2	95	96.6	94.1	90.9	> 10	> 10	> 10	> 10	> 10	0	0	0	0	0
COc1cc(C(=O)c2c(C)oc3c(O)c(OC)ccc23)cc(OC)c1OC [BNC105]	34.9	22.7	22.8	27.9	30.4	62.8	39.6	41.4	37.9	41.1	100	44.7	20.9	19.3	19.7	106	54.6	33.7	39.2	30.9	86.2	60.4	42.6	35.7	38	< 0.001	< 0.001	0.0073	0.0078	0.0055	38.3	30.3	31.5	27	24.7
COc1ccc2nc3cc(Cl)ccc3c(Nc3cc(CN4CCCC4)c(O)c(CN4CCCC4)c3)c2n1 [pyronaridine]	104	102	108	96.7	0.1	99.2	95.8	100	87.9	29.4	98.3	104	97.2	102	31.7	102	111	95.5	104	46.4	105	87	99.8	90.5	-0.1	2.93	1.87	3.34	3.54	2.38	6	5.9	3.6	2.5	7.1
Nc1nc(=O)n([C@@H]2CS[C@H](CO)O2)cc1F [emtricitabine]	102	102	99.5	104	100	107	108	108	98.8	109	97.2	104	92.1	98	98.9	104	88.8	105	96.2	110	104	105	102	97.5	85.5	> 10	> 10	> 10	> 10	> 10	0	0	0	0	0.4
C=CCN1CC[C@]23c4c5ccc(O)c4O[C@H]2[C@@H](OCCOCCOCCOCCOCCOCCOCCOC)CC[C@@]3(O)[C@H]1C5 [naloxegol]	101	96.7	103	97.5	105	107	97.9	98.5	104	105	93.9	99.1	95	98.8	96.5	97.1	107	91.7	101	88.7	99.8	94	97.8	93.6	107	> 10	> 10	> 10	> 10	> 10	0	0	0	0	0
CN1CCC(COc2cnc(-c3cccc(Cn4nc(-c5cccc(C#N)c5)ccc4=O)c3)nc2)CC1	102	97.8	95.7	95.9	106	96.1	99.7	93.8	100	94.9	96.3	97.4	106	99	102	103	110	93.3	101	110	106	93.4	106	95.2	99.2	> 10	> 10	> 10	> 10	> 10	0	0	0	0	0
